This note sets out measurements from US7153874B2, “Imidazole derivatives” (Hoffmann-La Roche Inc., priority 2003, dated 2006).

Data set [1] addresses T1, human mGlu 5a receptor (Homo sapiens, UniProt P41594).
T1 construct: expressed in transfected cells; host or cells: EBNA cells (transient transfection); cell membrane homogenates
As to the kind of experiment: [3H]MPEP competition binding on membranes of EBNA cells transfected with human mGlu 5a receptor. The note with it: read-out: Ki (mGluR5). As for the experimental part:
For binding experiments, cDNA encoding human mGlu 5a receptor was transiently transfected into EBNA cells using a procedure described by Schlaeger and Christensen [Cyto-technology 15:1–13 (1998)]. Cell membrane homogenates were stored at −80° C. until the day of assay where upon they were thawed and resuspended and polytronised in 15 mM Tris-HCl, 120 mM NaCl, 100 mM KCl, 25 mM CaCl2, 25 mM MgCl2 binding buffer at pH 7.4 to a final assay concentration of 20 μg protein/well.
Saturation isotherms were determined by addition of twelve [^3H]MPEP concentrations (0.04–100 nM) to these membranes (in a total volume of 200 μl) for 1 h at 4° C. Competition experiments were performed with a fixed concentration of [^3H]MPEP (2 nM) and IC50 values of test compounds evaluated using 11 concentrations (0.3–10,000 nM). Incubations were performed for 1 h at 4° C.
At the end of the incubation, membranes were filtered onto unifilter (96-well white microplate with bonded GF/C filter preincubated 1 h in 0.1% PEI in wash buffer, Packard BioScience, Meriden, Conn.) with a Filtermate 96 harvester (Packard BioScience) and washed 3 times with cold 50 mM Tris-HCl, pH 7.4 buffer. Nonspecific binding was measured in the presence of 10 μM MPEP. The radioactivity on the filter was counted (3 min) on a Packard Top-count microplate scintillation counter with quenching correction after addition of 45 μl of microscint 40 (Canberra Packard S. A., Zürich, Switzerland) and shaking for 20 min.
The inhibition (antagonists) curves were fitted with a four parameter logistic equation giving IC50, and Hill coefficient using an iterative non linear curve fitting software (Xcel fit).
The Ki value is defined by the following formula: Ki=IC50/[1+L/Kd] in which the IC50 values are those concentrations of the compounds tested which cause 50% inhibition of the competing radioligand ([^3H]MPEP). L is the concentration of radioligand used in the binding experiment and the Kd value of the radioligand is empirically determined for each batch of membranes prepared.

Usually melting point stands for the temperature of the solid-liquid transition. What is called Ki is the dissociation constant of the complex between target and ligand, obtained from inhibition or displacement.

Structures can show the parent of a compound that is named as a salt.

T1 sequence (P41594 21-1180 isoform P41594-2 limits assumed): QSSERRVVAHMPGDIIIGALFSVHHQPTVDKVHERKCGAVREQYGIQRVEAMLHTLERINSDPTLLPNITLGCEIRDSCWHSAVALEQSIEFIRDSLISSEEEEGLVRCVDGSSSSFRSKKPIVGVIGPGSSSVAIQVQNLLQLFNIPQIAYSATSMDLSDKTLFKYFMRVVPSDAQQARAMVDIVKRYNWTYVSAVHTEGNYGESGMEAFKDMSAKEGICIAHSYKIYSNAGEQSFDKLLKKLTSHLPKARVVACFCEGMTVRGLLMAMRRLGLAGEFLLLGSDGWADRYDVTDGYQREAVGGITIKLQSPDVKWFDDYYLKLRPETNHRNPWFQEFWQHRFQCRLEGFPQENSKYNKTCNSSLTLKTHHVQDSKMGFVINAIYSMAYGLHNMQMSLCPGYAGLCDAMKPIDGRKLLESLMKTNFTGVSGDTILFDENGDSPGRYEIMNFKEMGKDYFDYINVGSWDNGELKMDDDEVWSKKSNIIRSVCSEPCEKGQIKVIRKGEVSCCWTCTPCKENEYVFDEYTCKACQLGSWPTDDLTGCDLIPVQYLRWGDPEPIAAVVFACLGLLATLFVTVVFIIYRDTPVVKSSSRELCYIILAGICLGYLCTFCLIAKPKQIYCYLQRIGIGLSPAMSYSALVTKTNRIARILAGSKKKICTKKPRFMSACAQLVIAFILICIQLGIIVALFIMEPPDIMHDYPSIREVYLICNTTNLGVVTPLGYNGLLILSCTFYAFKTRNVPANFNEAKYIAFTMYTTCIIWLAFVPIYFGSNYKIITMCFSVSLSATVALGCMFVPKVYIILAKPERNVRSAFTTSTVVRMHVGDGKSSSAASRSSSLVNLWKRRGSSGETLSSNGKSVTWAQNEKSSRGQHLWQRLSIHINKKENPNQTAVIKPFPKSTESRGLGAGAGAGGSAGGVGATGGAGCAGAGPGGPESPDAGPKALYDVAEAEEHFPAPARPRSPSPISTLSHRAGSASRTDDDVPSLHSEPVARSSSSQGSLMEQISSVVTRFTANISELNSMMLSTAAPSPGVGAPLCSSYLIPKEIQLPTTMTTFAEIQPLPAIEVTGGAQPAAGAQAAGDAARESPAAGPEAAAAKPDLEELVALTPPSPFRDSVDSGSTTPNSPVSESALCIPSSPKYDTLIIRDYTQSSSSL

In turn, `COc1cc(-n2cc(C#Cc3ccnc(C)c3)nc2C)ccn1` (as salt: HCl) [Compound 69, 2-Methoxy-4-[2-methyl-4-(2-methyl-pyridin-4-ylethynyl)-imidazol-1-yl]-pyridine] displayed a melting point of 145 to 147 °C.

Take `Cc1cc(C#Cc2cn(-c3ccc(F)cc3)c(C)n2)ccn1` [Compound 1, 4-[1-(4-Fluoro-phenyl)-2-methyl-1H-imidazol-4-ylethynyl]-2-methyl-pyridine]: the melting point turned out to be 151 °C.

As to `Cc1cc(C#Cc2cn(-c3ccc(Cl)c(Cl)c3)c(C)n2)ccn1` [Compound 2, 4-[1-(3,4-Dichloro-phenyl)-2-methyl-1H-imidazol-4-ylethynyl]-2-methyl-pyridine hydrochloride], the Ki in data set [1] stood at 18 nM.

Turning to `Cc1cc(C#Cc2cn(-c3ccc(F)c(F)c3)c(C)n2)ccn1` [Compound 4, 4-[1-(3,4-difluoro-phenyl)-2-methyl-1H-imidazol-4-ylethynyl]-2-methyl-pyridine], the Ki in data set [1] was found to be 25 nM.

Regarding `Cc1cc(C#Cc2cn(-c3cccc(C(F)(F)F)c3)c(C)n2)ccn1` [Compound 7, 2-methyl-4-[2-methyl-1-(3-trifluoromethyl-phenyl)-1H-imidazol-4-ylethynyl]-pyridine], the Ki in data set [1] came out at 24 nM.

The molecule `Cc1cc(C#Cc2cn(-c3ncccn3)c(C)n2)ccn1` [Compound 8, 2-[2-Methyl-4-(2-methyl-pyridin-4-ylethynyl)-imidazol-1-yl]-pyrimidine] showed a melting point of 164 to 165 °C. The Ki in data set [1] amounted to 74 nM.

For the molecule `Cc1cc(C#Cc2cn(-c3ccc4c(ccn4C)c3)c(C)n2)ccn1` [Compound 18, 1-methyl-5-[2-methyl-4-(2-methyl-pyridin-4-ylethynyl)-imidazol-1-yl]-1H-indole], the Ki in data set [1] was determined as 45 nM.

As to `Cc1cc(C#Cc2cn(-c3nccc(C(F)(F)F)n3)c(C)n2)ccn1` [Compound 21, 2-[2-methyl-4-(2-methyl-pyridin-4-ylethynyl)-imidazol-1-yl]-4-trifluoromethyl-pyrimidine], in data set [1], the Ki worked out at 17 nM.

With `COc1ccnc(-n2cc(C#Cc3ccnc(C)c3)nc2C)n1` [Compound 22, 4-methoxy-2-[2-methyl-4-(2-methyl-pyridin-4-ylethynyl)-imidazol-1-yl]-pyrimidine], the Ki in data set [1] stood at 18 nM.

In the case of `Cc1cc(C#Cc2cn(-c3nccc(Cl)n3)c(C)n2)ccn1` [Compound 29, 4-chloro-2-[2-methyl-4-(2-methyl-pyridin-4-ylethynyl)-imidazol-1-yl]-pyrimidine], the inhibitory constant (Ki) in data set [1] turned out to be 25 nM.

Regarding `Cc1cc(C#Cc2cn(-c3cncc(C4CC4)n3)c(C)n2)ccn1` [Compound 56, 2-cyclopropyl-6-[2-methyl-4-(2-methyl-pyridin-4-ylethynyl)-imidazol-1-yl]-pyrazine], in data set [1], the Ki was 27 nM.

Regarding `Cc1cc(C#Cc2cn(-c3cccc(C4CC4)n3)c(C)n2)ccn1` [Compound 57, 2-cyclopropyl-6-[2-methyl-4-(2-methyl-pyridin-4-ylethynyl)-imidazol-1-yl]-pyridine], the Ki in data set [1] stood at 16 nM.

In the case of `COc1cccc(-n2cc(C#Cc3ccnc(C)c3)nc2C)n1` [Compound 68, 2-Methoxy-6-[2-methyl-4-(2-methyl-pyridin-4-ylethynyl)-imidazol-1-yl]-pyridine], the Ki in data set [1] is 18 nM.

In the case of `Cc1cc(C#Cc2cn(-c3cccc(N(C)C)n3)c(C)n2)ccn1` [Compound 71, dimethyl-{6-[2-methyl-4-(2-methyl-pyridin-4-ylethynyl)-imidazol-1-yl]-pyridin-2-yl}-amine], in data set [1], the Ki amounted to 19 nM.

With `Cc1cc(C#Cc2nc(C)n(-c3ccc(F)cc3)c2C)ccn1` [Compound 88, 4-[1-(4-Fluoro-phenyl)-2,5-dimethyl-1H-imidazol-4-ylethynyl]-2-methyl-pyridine], the Ki in data set [1] came out at 33 nM.

`Cc1cc(C#Cc2nc(C)n(-c3ccc(F)cc3)c2C=O)ccn1` [Compound 89, 3-(4-Fluoro-phenyl)-2-methyl-5-(2-methyl-pyridin-4-ylethynyl)-3H-imidazole-4-carbaldehyde]: in data set [1], the Ki worked out at 65 nM.
